According to patent publication US5605895A, “Cephalosporin antibiotics and processes for preparation thereof” (Lucky, Ltd., priority 1993, dated 1997):
In brackets after ≈: the same amount, converted by molar mass. Read-outs that look alike come from different tables or passages of the source.

Tests used:
P. aeruginosa 1912E = test: Minimum inhibitory concentration, agar dilution; format: cell-based; conditions: Pseudomonas aeruginosa, 20 h, read-out: Minimum Inhibitory Concentration
Description: (§1) The minimum inhibitory concentration was determined by diluting the test compounds according to 2-fold dilution, suspending them in M uller-Hinton agar medium, inoculating the test strains having 10^7 CFU per 1 ml into the medium and then culturing the medium at 37° C. for 20 hours.

S. aureus 6538pA = test: Minimum inhibitory concentration, agar dilution; format: cell-based; conditions: Staphylococcus aureus, Muller-Hinton agar, 10^7 CFU per ml, 37° C., 20 hours
Description: as §1

P. aeruginosa 6065Y = test: Minimum inhibitory concentration, agar dilution; format: cell-based; conditions: Pseudomonas aeruginosa, 20 h, read-out: Minimum Inhibitory Concentration
Description: as §1

E. coli TEM1 1193E = test: Minimum inhibitory concentration, agar dilution; format: cell-based; conditions: Escherichia coli, TEM11193E, 20 h, read-out: Minimum Inhibitory Concentration
Description: as §1

S. faecalis 29212A = test: Minimum inhibitory concentration, agar dilution; format: cell-based; conditions: Enterococcus faecalis, read-out: Minimum Inhibitory Concentration
Description: as §1

E. coli 3190Y = test: Minimum inhibitory concentration, agar dilution; format: cell-based; conditions: Escherichia coli, read-out: Minimum Inhibitory Concentration
Description: as §1

E. coli TEM9 2639E = test: Minimum inhibitory concentration, agar dilution; format: cell-based; conditions: Escherichia coli, TEM92639E, 20 h, read-out: Minimum Inhibitory Concentration
Description: as §1

E. coli TEM5 3739E = test: Minimum inhibitory concentration, agar dilution; format: cell-based; conditions: Escherichia coli, TEM53739E, 20 h, read-out: Minimum Inhibitory Concentration
Description: as §1

P. aeruginosa 10145 = test: Minimum inhibitory concentration, agar dilution; format: cell-based; conditions: Pseudomonas aeruginosa, Muller-Hinton agar, 10^7 CFU per ml, 37° C., 20 hours
Description: as §1

E. coli 10536 = test: Minimum inhibitory concentration, agar dilution; format: cell-based; conditions: read-out: Minimum Inhibitory Concentration
Description: as §1

K. aerogenes 1976E = test: Minimum inhibitory concentration, agar dilution; format: cell-based; conditions: Klebsiella aerogenes, Muller-Hinton agar, 10^7 CFU per ml, 37° C., 20 hours
Description: as §1

E. cloacae 1194E = test: Minimum inhibitory concentration, agar dilution; format: cell-based; conditions: Enterobacter cloacae, 1194E, 20 h, read-out: Minimum Inhibitory Concentration
Description: as §1

S. marcescens 1826E = test: Minimum inhibitory concentration, agar dilution; format: cell-based; conditions: Serratia marcescens, Muller-Hinton agar, 10^7 CFU per ml, 37° C., 20 hours
Description: as §1

A. calcoaceticus 15473A = test: Minimum inhibitory concentration, agar dilution; format: cell-based; conditions: Acinetobacter calcoaceticus, Muller-Hinton agar, 10^7 CFU per ml, 37° C., 20 hours
Description: as §1

S. typhimurium 14028A = test: Minimum inhibitory concentration, agar dilution; format: cell-based; conditions: Salmonella enterica, read-out: Minimum Inhibitory Concentration
Description: as §1

S. aureus giorigio = test: Minimum inhibitory concentration, agar dilution; format: cell-based; conditions: Staphylococcus aureus, Muller-Hinton agar, 10^7 CFU per ml, 37° C., 20 hours
Description: as §1

[1] = Pharmacokinetic properties in SD rats; format: in vivo; conditions: rat; SD rats (male), intravenous, 20 mg/kg; blood, biological assay (agar well method)
Description: The pharmacokinetic properties of the compound of the present invention were determined using SD rats (.male.) weighing 220 to 340 g. Specifically, the test samples were administered in intravenous route in an amount of 20 mg/kg to 2 to 5 test animals. Blood was taken from femoral vein every hours after the administration and then subjected to a biological assay using agar well method to measure the blood concentration. The results of pharmacokinetic properties calculated from the above blood concentration are described in the following Table 3.

[2] = S. faecalis 29212A, Muller-Hinton agar, 10^7 CFU per ml, 37° C., 20 hours
[3] = Escherichia coli, E. coli 10536, Muller-Hinton agar, 10^7 CFU per ml, 37° C., 20 hours
[4] = S. typhimurium 14028A, Muller-Hinton agar, 10^7 CFU per ml, 37° C., 20 hours

| Structure (SMILES) | MIC (P. aeruginosa 1912E) [µg/mL] | MIC (S. aureus 6538pA) [µg/mL] | MIC (P. aeruginosa 6065Y) [µg/mL] | MIC (E. coli TEM1 1193E) [µg/mL] | MIC (S. faecalis 29212A; [2]) [µg/mL] | MIC (E. coli 3190Y; 3190Y, 20 h) [µg/mL] | MIC (E. coli TEM9 2639E) [µg/mL] | MIC (E. coli TEM5 3739E) [µg/mL] | MIC (P. aeruginosa 10145) [µg/mL] | MIC (E. coli 10536; [3]) [µg/mL] | MIC (K. aerogenes 1976E) [µg/mL] | MIC (E. cloacae 1194E) [µg/mL] | MIC (S. marcescens 1826E) [µg/mL] | MIC (A. calcoaceticus 15473A) [µg/mL] | MIC (S. typhimurium 14028A; [4]) [µg/mL] | MIC (S. aureus giorigio) [µg/mL] | AUC [1] [ng·h/mL] | half-life [1] [min] | MIC (S. typhimurium 14028A; TYPHIMURIUM, 20 h) [µg/mL] | MIC (S. faecalis 29212A; 29212A, 20 h) [µg/mL] | also measured |
| --- | --- | --- | --- | --- | --- | --- | --- | --- | --- | --- | --- | --- | --- | --- | --- | --- | --- | --- | --- | --- | --- |
| Nc1cc[n+](N)c(SCC2=C(C(=O)[O-])N3C(=O)C(NC(=O)C(=NOC(C(=O)O)c4ccc(O)c(O)c4)c4csc(N)n4)C3SC2)n1 (stereo not drawn) [I-4(a), 7-[(Z)-2-(2-aminothiazol-4-yl)-2-(α-carboxy-3,4-dihydroxybenzyloxyimino)acetamide]-3-(1,4-diaminopyrimidinium-2-yl)thiomethyl-3-cephem-4-carboxylate] | 0.25 (≈ 0.362 µM) | 1 (≈ 1.45 µM) | 0.5 (≈ 0.725 µM) | 0.063 (≈ 0.0913 µM) | 64 (≈ 92.8 µM) | 0.063 (≈ 0.0913 µM) | 1 (≈ 1.45 µM) | 0.5 (≈ 0.725 µM) | 0.25 (≈ 0.362 µM) | 0.016 (≈ 0.0232 µM) | 0.13 (≈ 0.188 µM) | 1 (≈ 1.45 µM) | 0.25 (≈ 0.362 µM) | 0.25 (≈ 0.362 µM) | 0.031 (≈ 0.0449 µM) | 0.5 (≈ 0.725 µM) | 52900 | 50 |  |  |  |
| Cn1c(N)n[n+]2c(SCC3=C(C(=O)[O-])N4C(=O)C(NC(=O)C(=NOC(C(=O)O)c5ccc(O)c(O)c5)c5csc(N)n5)[C@H]4SC3)nc(N)cc12 (stereo partly drawn) [I-10(a), 7-[(Z)-2-(2-aminothiazol-4-yl)-2-(α-carboxy-3,4-dihydroxybenzyloxyimino)acetamido]-3-(2,7-diamino-1-methyl[1,2,4]triazolo[1,5-c]pyrimidinium-5-yl)thiomethyl-3-cephem-4-carboxylate] | 0.5 (≈ 0.672 µM) | 0.5 (≈ 0.672 µM) | 0.5 (≈ 0.672 µM) | 0.063 (≈ 0.0847 µM) | 8 (≈ 10.8 µM) |  | 1 (≈ 1.34 µM) | 0.25 (≈ 0.336 µM) | 0.25 (≈ 0.336 µM) | 0.016 (≈ 0.0215 µM) | 0.13 (≈ 0.175 µM) | 1 (≈ 1.34 µM) | 0.25 (≈ 0.336 µM) | 0.5 (≈ 0.672 µM) |  | 0.25 (≈ 0.336 µM) | 66000 | 58 | 0.063 (≈ 0.0847 µM) |  | MIC (E. coli 3190Y; E. coli 3190Y, Muller-Hinton agar, 10^7 CFU per ml, 37° C., 20 hours): 0.031 µg/mL (≈ 0.0417 µM) |
| Cc1c(N)nc(SCC2=C(C(=O)[O-])N3C(=O)C(NC(=O)/C(=N\OC(C(=O)O)c4ccc(O)c(O)c4)c4csc(N)n4)[C@H]3SC2)[n+](N)c1N (stereo partly drawn) [I-1(a), 7-[(Z)-2-(2-aminothiazol-4-yl)-2-(α-carboxy-3,4-dihydroxybenzyloxyimino)acetamido]-3-(5-methyl-1,4,6-triaminopyrimidinium-2-yl)thiomethyl-3-cephem-4-carboxylate] | 0.5 (≈ 0.696 µM) | 0.25 (≈ 0.348 µM) | 0.5 (≈ 0.696 µM) | 0.063 (≈ 0.0877 µM) |  | 0.063 (≈ 0.0877 µM) | 1 (≈ 1.39 µM) | 0.25 (≈ 0.348 µM) | 0.25 (≈ 0.348 µM) | 0.013 (≈ 0.0181 µM) | 0.13 (≈ 0.181 µM) | 1 (≈ 1.39 µM) | 0.25 (≈ 0.348 µM) | 0.5 (≈ 0.696 µM) |  | 0.13 (≈ 0.181 µM) | 52500 | 40 | 0.063 (≈ 0.0877 µM) | 16 (≈ 22.3 µM) |  |
| CC(C)(O/N=C(\C(=O)N[C@@H]1C(=O)N2C(C(=O)[O-])=C(C[n+]3ccccc3)CS[C@H]12)c1csc(N)n1)C(=O)O [CAZ, Ceftazidime, reference compound] | 1 (≈ 1.83 µM) | 16 (≈ 29.3 µM) | 32 (≈ 58.5 µM) | 0.25 (≈ 0.457 µM) |  | 0.063 (≈ 0.115 µM) | > 128 | 8 (≈ 14.6 µM) | 2 (≈ 3.66 µM) |  | 0.25 (≈ 0.457 µM) | 128 (≈ 234 µM) | 0.25 (≈ 0.457 µM) | 2 (≈ 3.66 µM) |  | 4 (≈ 7.32 µM) |  |  | 0.25 (≈ 0.457 µM) | > 128 | MIC (E. coli 10536; Escherichia coli, 10536, 20 h): 0.13 µg/mL (≈ 0.238 µM) |
| C[n+]1cc(C(=O)O)c(N)nc1SCC1=C(C(=O)[O-])N2C(=O)C(NC(=O)/C(=N\OC(C(=O)O)c3ccc(O)c(O)c3)c3csc(N)n3)[C@H]2SC1 (stereo partly drawn) [I-6(a), 7-[(Z)-2-(2-aminothiazol-4-yl)-2-(α-carboxy-3,4-dihydroxybenzyloxyimino)acetamido]-3-(4-amino-1-methyl-5-carboxypyrimidinium-2-yl)thiomethyl-3-cephem-4-carboxylate] | 0.25 (≈ 0.341 µM) | 2 (≈ 2.73 µM) | 0.5 (≈ 0.682 µM) | 0.063 (≈ 0.086 µM) |  | 0.13 (≈ 0.177 µM) | 4 (≈ 5.46 µM) | 0.25 (≈ 0.341 µM) | 0.25 (≈ 0.341 µM) | 0.031 (≈ 0.0423 µM) | 0.25 (≈ 0.341 µM) | 4 (≈ 5.46 µM) | 1 (≈ 1.36 µM) | 0.5 (≈ 0.682 µM) | 0.031 (≈ 0.0423 µM) | 2 (≈ 2.73 µM) | 37800 | 32 |  | 32 (≈ 43.7 µM) |  |
